Key:
MRC-5 fibroblasts = test: MTT cytotoxicity assay on non-cancerous MRC-5 fibroblasts; format: cell-based; conditions: 2.5 µM, 72 h, MTT, mean±SD, untreated control about 100
Description: (§1) Cytotoxicity screens were performed to assess the in vitro anticancer activity of the synthesized A-ring-linked 2-pyrazoles of estradiol, the pyrazolocoumarin-estradiol hybrids, and their structurally simplified non-steroidal analogs on various cancerous cell lines such as MCF-7, PC-3, DU145, and HeLa and on non-cancerous MRC-5 fibroblasts. The 2-acetyl-phenol starting materials (4, 5, and 15) were also included for comparison. All compounds were applied in 2.5 µM concentration for 72 h. The obtained cell viability data were used to construct a heat map (Figure 2) in order to select compounds that exert cancer cell line-specific cytotoxicity. […] Furthermore, some compounds discriminated only DU145 cells and could eliminate these type of prostate cancer cells.
(§2) To understand structure-function relationships, we also included the structural analogs of the selected compounds, namely 7a (C-17 acetate of 8a), 8c (C-17 OH counterpart of 7c), and 9a (steroidal pair of 19a) into subsequent analyses. […] For this, compounds were applied on MCF-7, PC-3, DU145, and HeLa and on non-cancerous MRC-5 fibroblasts in various concentrations for 72 h or were treated with cisplatin at different concentrations. On the viability data, dose–response curves were fitted (Figure S1) and IC50 values were calculated accordingly (Table 3). In agreement with the primary cytotoxicity screen (Table S1), the obtained IC50 concentrations clearly indicated which compound was selectively effective on one or more cancer cell lines. […] Typically, acetylated steroidal pyrazoles were less favorable than deacetylated counterparts due to reduced cancer cell selectivity (7c, 10a).
(§3) To evaluate the in vitro pharmacological effects of the synthesized molecules, each compound was first dissolved in cell culture grade DMSO (Sigma) to a final concentration of 10 mM. Using MTT colorimetric assay, the cytotoxicity of these compounds was evaluated on cancerous (MCF-7, HeLa, DU145, PC-3) and non-cancerous (MRC-5) cell lines. Briefly, 5000 cells/well of each cell line were seeded in 96-well plates and were left to grow overnight in a 5% CO2 atmosphere at 37 °C. On the next day, cells were treated with each derivative separately, in case of the primary screen, or only with the selected compounds upon IC50 determination. Cells were incubated with the test compounds for 72 h in a 5% CO2 atmosphere at 37 °C. End point was measured by incubating cells for 1 h with 0.5 mg/mL of MTT reagent (Serva) dissolved in serum free culture medium. The formazan crystals formed by metabolically active cells were later dissolved in DMSO. Optical density of the obtained solutions was measured at 570 nm using a Synergy HTX plate reader. […] The analysis and conclusions were made based on three independent experiments. Normalized data were analyzed and the heat map was constructed using GraphPad Prism 7 software.

MCF-7 cells = test: MTT cytotoxicity assay on MCF-7 cells; format: cell-based; conditions: 2.5 µM, 72 h, mean±SD, untreated control about 100
Description: as §1, §2, §3

DU145 cells = test: MTT cytotoxicity assay on DU145 prostate cancer cells; format: cell-based; conditions: 2.5 µM, 72 h, mean±SD, untreated control about 100
Description: as §1, §2, §3

PC-3 cells = test: MTT cytotoxicity assay on PC-3 prostate cancer cells; format: cell-based; conditions: 2.5 µM, 72 h, mean±SD, untreated control about 100
Description: as §1, §2, §3

HeLa cells = test: MTT cytotoxicity assay on HeLa cells; format: cell-based; conditions: 2.5 µM, 72 h, mean±SD, untreated control about 100
Description: as §1, §2, §3

Cc1ccc(-n2cc3c(=O)oc4cc5c(cc4c3n2)CCCC5)cc1 [Compound 19b, 2-(4′-Tolyl)-7,8,9,10-tetrahydrobenzo[6,7]chromeno[4,3-c]pyrazol-4(2H)-one]
primary growth inhibitory screen, cell viability, MRC-5 (MRC-5 fibroblasts): ≥ 100±0
primary growth inhibitory screen, cell viability, MCF-7 (MCF-7 cells): ≥ 100±4.8
primary growth inhibitory screen, cell viability, DU145 (DU145 cells): 100.6±6.3
melting point: 224 to 226 °C
primary growth inhibitory screen, cell viability, PC-3 (PC-3 cells): 84.1±5.2
primary growth inhibitory screen, cell viability, HeLa (HeLa cells): ≥ 100±2.4

O=c1oc2cc3c(cc2c2nn(-c4ccc(Cl)cc4)cc12)CCCC3 [Compound 19c, 2-(4′-Chlorophenyl)-7,8,9,10-tetrahydrobenzo[6,7]chromeno[4,3-c]pyrazol-4(2H)-one]
primary growth inhibitory screen, cell viability, MRC-5 (MRC-5 fibroblasts): ≥ 100±2.5
primary growth inhibitory screen, cell viability, MCF-7 (MCF-7 cells): ≥ 100±3.8
primary growth inhibitory screen, cell viability, DU145 (DU145 cells): ≥ 100.6±10.8
melting point: 291 to 293 °C
primary growth inhibitory screen, cell viability, PC-3 (PC-3 cells): 79.1±7.8
primary growth inhibitory screen, cell viability, HeLa (HeLa cells): ≥ 100±8.3
